# Measured values as given in patent publication US20250332173A1, “COMPOUNDS AND METHODS FOR MODULATING NUCLEIC ACID SPLICING” (REMIX THERAPEUTICS INC., priority 2021, published 2025).
# Where two headings read alike, the source gives them in different places.
# Experiments:
# HTT = test: HiBiT protein abundance assay, HTT HiBiT K562 cell line; assay type: cell-based, human; conditions: HiBiT K562 cell line, 24 hours, top dose 10 μM; read-out: Effect on protein abundance, HTT (IC50 category)
# How it was run: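 Tagged-protein abundance measured by split-NanoBiT luminescence after lysis, following 24 h compound exposure (37° C; 10 μM top, 3-fold, 10 points; DMSO ≤0.25%) of HiBiT knock-in K562 cells. Percent response vs DMSO and unmodified-cell controls; 4-parameter logistic interpolation at 50% gave IC50.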
# MYB mRNA = test: RT-qPCR splicing assay, MYB canonical junction (CJ) and alternative junction (AJ) mRNA; assay type: cell-based, human; conditions: Homo sapiens; for AC50: increase in MYB alternative junction (AJ) mRNA, read-out: MYB AJ AC50
# How it was run: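 Splicing switches were read by TaqMan RT-qPCR on lysates, quantifying exon-exon junctions of the canonical and alternative-exon isoforms. Lysates came from K562 (GAPDH/GUSB reference) or A673 (PPIA reference) cells exposed 24 h to compound in 11 threefold steps from 10 uM, with DMSO ≤0.25%.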
# [1] = Table 5 panel, canonical junction qPCR, compound concentration having 50% response in CJ decrease, read-out: MYB IC50 (decrease in CJ mRNA levels)
# [2] = decrease in MYB canonical junction (CJ) mRNA, RT-qPCR, read-out: MYB CJ IC50
SMILES,IC50 (HTT),IC50 (MYB mRNA; [1]),IC50 (MYB mRNA; [2]),AC50 (MYB mRNA; RT-qPCR)
"Cc1cn2cc(-c3cc(N)c4c(=O)n(C5CCNCC5)cnc4c3)cc(C#N)c2n1 [Compound 364, 6-[5-amino-4-oxo-3-(piperidin-4-yl)quinazolin-7-yl]-2-methylimidazo[1,2-a]pyridine-8-carbonitrile]",> 10000 nM,> 10000 nM,> 10000 nM,> 10000 nM
"Cn1cc2c(n1)CCN(c1cc(F)c3c(=O)n(C4CCNCC4)cnc3c1)C2 [Compound 365, 5-fluoro-7-(2-methyl-2,4,6,7-tetrahydro-5H-pyrazolo[4,3-c]pyridin-5-yl)-3-(piperidin-4-yl)quinazolin-4(3H)-one]",> 10000 nM,1000 to 10000 nM,1000 to 10000 nM,1000 to 10000 nM
"Cc1cn2cc(-c3cc(F)c4c(=O)n(C5CCOC5)cnc4c3)cc(C#N)c2n1 (centres unmarked) [Compound 366, 6-[5-fluoro-4-oxo-3-(oxolan-3-yl)quinazolin-7-yl]-2-methylimidazo[1,2-a]pyridine-8-carbonitrile]",1000 to 10000 nM,1000 to 10000 nM,1000 to 10000 nM,1000 to 10000 nM
"Cc1cn2cc(-c3cc(F)c4c(=O)n(C5CCOCC5)cnc4c3)cc(C#N)c2n1 [Compound 367, 6-[5-fluoro-3-(oxan-4-yl)-4-oxoquinazolin-7-yl]-2-methylimidazo[1,2-a]pyridine-8-carbonitrile]",100 to 1000 nM,100 to 1000 nM,100 to 1000 nM,100 to 1000 nM
"Cc1cn2nc(-c3ccc4c(=O)n([C@H]5CCNC6(CC6)C5)ncc4c3)cc(C)c2n1 [Compound 369, 2-[(7S)-4-azaspiro[2.5]octan-7-yl]-6-{2,8-dimethylimidazo[1,2-b]pyridazin-6-yl}phthalazin-1-one]",100 to 1000 nM,< 100 nM,< 100 nM,< 100 nM
Cc1cn2cc(-c3cc(F)c4c(=O)n(C5CCNCC5)ccc4c3)cc(F)c2n1 [Compound 370],< 100 nM,< 100 nM,< 100 nM,< 100 nM
Cc1cn2nc(-c3ccc4c(=O)n([C@H]5CCNC[C@H]5F)cnc4c3)cc(C)c2n1 [Compound 372],100 to 1000 nM,100 to 1000 nM,100 to 1000 nM,100 to 1000 nM
Cc1cc(-c2ccc3c(=O)n(C4CCNC5(COC5)C4)cnc3c2)cc2cn(C)nc12 (centres unmarked) [Compound 375],1000 to 10000 nM,1000 to 10000 nM,1000 to 10000 nM,1000 to 10000 nM
Cc1cc(-c2ccc3c(=O)n([C@@H]4CCNC[C@H]4F)ncc3c2)cc2cn(C)nc12 [Compound 378],1000 to 10000 nM,1000 to 10000 nM,1000 to 10000 nM,1000 to 10000 nM
Cc1cn2nc(-c3ccc4c(=O)n([C@@H]5CCNC[C@H]5F)ncc4c3)cc(C)c2n1 [Compound 379],100 to 1000 nM,100 to 1000 nM,100 to 1000 nM,100 to 1000 nM
"Cc1cn2nc(-c3cc(F)c4c(=O)n(C5CCNC6(CC6)C5)ccc4c3)cc(C)c2n1 (centres unmarked) [Compound 380, 6-(2,8-dimethylimidazo[1,2-b]pyridazin-6-yl)-8-fluoro-2-(4-azaspiro[2.5]octan-7-yl)isoquinolin-1(2H)-one]",< 100 nM,< 100 nM,< 100 nM,< 100 nM
"Cc1cn2nc(-c3ccc4c(=O)n(C5CCNCC5)cc(C)c4c3)cc(C)c2n1 [Compound 381, 6-{2,8-dimethylimidazo[1,2-b]pyridazin-6-yl}-4-methyl-2-(piperidin-4-yl)isoquinolin-1-one]",< 100 nM,< 100 nM,< 100 nM,< 100 nM
"Cc1cn2cc(-c3cc(F)c4c(=O)n(C5CCNCC5)ccc4c3)cc(C#N)c2n1 [Compound 383, 6-[8-fluoro-1-oxo-2-(piperidin-4-yl)isoquinolin-6-yl]-2-methylimidazo[1,2-a]pyridine-8-carbonitrile]",100 to 1000 nM,< 100 nM,< 100 nM,< 100 nM
Cc1cn2nc(-c3ccc4c(=O)n(C5CCNC6(CC6)C5)ccc4c3)cc(C)c2n1 (centres unmarked) [Compound 384],< 100 nM,< 100 nM,< 100 nM,< 100 nM
Cc1cn2nc(-c3cc(C#N)c4c(=O)n(C5CCNC6(CC6)C5)ccc4c3)cc(C)c2n1 (centres unmarked) [Compound 387],< 100 nM,< 100 nM,< 100 nM,< 100 nM
"Cc1cn2nc(-c3cc(Cl)c4c(=O)n(C5CCNCC5)ccc4c3)cc(C)c2n1 [Compound 390, 8-chloro-6-{2,8-dimethylimidazo[1,2-b]pyridazin-6-yl}-2-(piperidin-4-yl)isoquinolin-1-one; trifluoroacetaldehyde]",< 100 nM,< 100 nM,< 100 nM,< 100 nM
"Cc1cn2nc(-c3cc(O)c4c(=O)n(C5CCNCC5)ccc4c3)cc(C)c2n1 [Compound 391, 6-(2,8-dimethylimidazo[1,2-b]pyridazin-6-yl)-8-hydroxy-2-(piperidin-4-yl)isoquinolin-1(2H)-one]",< 100 nM,< 100 nM,< 100 nM,< 100 nM
"CC(=O)c1cc(-c2cc(F)c3c(=O)n(C4CCNCC4)ccc3c2)cn2cc(C)nc12 [Compound 393, 6-{8-acetyl-2-methylimidazo[1,2-a]pyridin-6-yl}-8-fluoro-2-(piperidin-4-yl)isoquinolin-1-one 2,2,2-trifluoroacetate]",100 to 1000 nM,100 to 1000 nM,100 to 1000 nM,100 to 1000 nM
"Cn1cc2cc(-c3cc(F)c4c(=O)n(C5CCNCC5)ccc4c3)cc(C#N)c2n1 [Compound 394, 5-(8-fluoro-1-oxo-2-(piperidin-4-yl)-1,2-dihydroisoquinolin-6-yl)-2-methyl-2H-indazole-7-carbonitrile]",< 100 nM,< 100 nM,< 100 nM,< 100 nM
"COc1cc(-c2cc(C)c3nc(C)cn3n2)cc2ccn(C3CCNCC3)c(=O)c12 [Compound 399, 6-{2,8-dimethylimidazo[1,2-b]pyridazin-6-yl}-8-methoxy-2-(piperidin-4-yl)isoquinolin-1-one]",100 to 1000 nM,100 to 1000 nM,100 to 1000 nM,100 to 1000 nM
"Cc1cn2nc(-c3cc(F)c4c(=O)n(C5CCN(C)CC5)ccc4c3)cc(C)c2n1 [Compound 400, 6-(2,8-dimethylimidazo[1,2-b]pyridazin-6-yl)-8-fluoro-2-(1-methylpiperidin-4-yl)isoquinolin-1(2H)-one]",< 100 nM,< 100 nM,< 100 nM,< 100 nM
"CCN1CCC(n2ccc3cc(-c4cc(C)c5nc(C)cn5n4)ccc3c2=O)CC1 [Compound 402, 6-{2,8-dimethylimidazo[1,2-b]pyridazin-6-yl}-2-(1-ethylpiperidin-4-yl)isoquinolin-1-one]",< 100 nM,< 100 nM,100 to 1000 nM,< 100 nM
"Cc1cn2cc(-c3ccc4c(=O)n([C@H]5CCCNC5)ccc4c3)cc(F)c2n1 [Compound 404, 6-{8-fluoro-2-methylimidazo[1,2-a]pyridin-6-yl}-2-[(3S)-piperidin-3-yl]isoquinolin-1-one]",1000 to 10000 nM,1000 to 10000 nM,1000 to 10000 nM,1000 to 10000 nM
"Cc1cn2cc(-c3cc(S(C)(=O)=O)c4c(=O)n(C5CCNCC5)ccc4c3)cc(F)c2n1 [Compound 409, 6-(8-fluoro-2-methylimidazo[1,2-a]pyridin-6-yl)-8-(methylsulfonyl)-2-(piperidin-4-yl)isoquinolin-1(2H)-one]",> 10000 nM,> 10000 nM,> 10000 nM,> 10000 nM
Cn1cc2cc(-c3cc(F)c4c(=O)n(C5CCNC6(CC6)C5)ccc4c3)cc(F)c2n1 (centres unmarked) [Compound 412],< 100 nM,< 100 nM,< 100 nM,< 100 nM
"Cc1cn2cc(-c3cc(F)c4c(=O)n(C5CCNC6(CC6)C5)ccc4c3)cc(Cl)c2n1 (centres unmarked) [Compound 413, 2-{4-azaspiro[2.5]octan-7-yl}-6-{8-chloro-2-methylimidazo[1,2-a]pyridin-6-yl}-8-fluoroisoquinolin-1-one]",< 100 nM,< 100 nM,< 100 nM,< 100 nM
